According to patent US20150017673A1, “COMPOSITIONS AND METHODS FOR DRUG-SENSITIZATION OR INHIBITION OF A CANCER CELL” (priority 2012, published 2015):
Values joined by “and” are separate entries in the source; they are usually repeats but may differ in a detail not shown here. Identical values can stand only once. Like-named read-outs stand apart in the source and are kept apart here.

Experiments:
[1] = tested on: lymphoma aspirate from a dog with CHOP-resistant lymphoma; assay: CHOP responsiveness of dog lymphoma aspirate (resazurin); format: cell-based
Experimental: A single lymphoma aspirate from a dog with CHOP-resistant lymphoma was tested for responsiveness to CHOP in the presence or absence of rifabutin. CHOP-responsiveness was measured by a decrease in fluorescence signal generated by resazurin.

[2] = tested on: multi-drug resistant sarcoma cell line MES-SA-Dx5; assay: Cell growth assay on MES-SA-Dx5 cells; format: cell-based; details: MES-SA-Dx5, uterus sarcoma
Experimental: Compositions were tested on CHOP-resistant G3 NHL cells that had been cultivated in RPMI medium for five days. Prior to assay, the cells were counted by haemocytometer and cell concentration standardized to 625,000 cells/ml. Test drugs were solubilized in 100% DMSO and then diluted to final assay concentration with 0.1M phosphate buffered saline (PBS) and a final DMSO concentration of 0.5%. Cells were added to assay plates containing the test drugs (rifabutin+148 ng/ml, 74 ng/ml, 37 ng/ml, or 0 ng/ml doxorubicin) and allowed to incubate for 96 hours at 37° C. and 5% CO2. The metabolic dye rezasurin was added to the wells of the assay plate at a final concentration of 20 μg/ml and the plates were incubated for an additional 24 hours. The plates were then read in a BMG Polarstar plate reader at wavelength (573-605) and the data plotted as OD versus increasing dilutions (i.e. decreasing total amounts) of rifabutin derivative concentration.
In these experiments, the following cell lines were used: CHOP-resistant NHL cell line G3, CHOP-sensitive NHL cell line CRL2631, the multi-drug resistant sarcoma cell line MES-SA-Dx5; multi-drug-resistant breast cancer cell line MDA-MB-231, multi-drug resistant ovarian carcinoma cell line SK-OV3, multi-drug resistant ovarian cancer cell line NCI/ADR-RES, drug-sensitive ovarian cancer cell line OVCAR-5, and multi-drug resistant ovarian cancer cell line OVCAR-3.
Additional cell lines used include: ovarian cancer OVCAR-8, T lymphoblastoid leukemia MOLT-4, dexamethasone-resistant multiple myeloma MM.1R, myeloid leukemia cells HL-60, osteosarcoma cells U-2 OS, and myeloma RPMI 8226.

[3] = tested on: multi-drug resistant ovarian carcinoma cell line SK-OV3; assay: Cell growth assay on SK-OV3 cells; format: cell-based, human; details: SK-OV3, ovarian carcinoma
[4] = tested on: human ovarian cancer cell line SK-OV-3; assay: SK-OV-3 xenograft efficacy study in SCID mice; format: in vivo
Experimental: In a fifth efficacy study, we generated xenografts of the human ovarian cancer cell line SK-OV-3, a cell line considered doxorubicin-resistant, by bilateral subcutaneous (s.c.) injection of 1×10^7 tumor cells to establish localized tumors in 6-8 week old female SCID mice. Using rifabutin co-administered with DOX, in vivo efficacy was assessed. […] Cycles of Dox or Dox+rifabutin were given once a week for 4 cycles. This cyclical dosing scheme of mouse models has precedent in the literature and is intended to mimic the cycles of DOXIL® (Centocor Ortho Biotech Products, LP, Raritan, N.J.) given in the clinic. Rifabutin was administered on the day of each DOX treatment and by gavage. Mouse body weight and tumor size were monitored.

[5] = cited from earlier work
[6] = tested on: lymphoma cell line G3; assay: Cell growth assay (resazurin fluorescence) on CHOP-resistant G3 NHL cells; format: cell-based, human; details: for IC50: Homo sapiens
Method in brief: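 CHOP-resistant G3 NHL cells grown five days in RPMI medium were counted by haemocytometer and set to 625,000 cells/ml. They were then added to plates holding test drug, first dissolved in 100% DMSO and diluted in 0.1M PBS to 0.5% final DMSO. Plates incubated 96 hours at 37° C. and 5% CO2. Resazurin at 20 μg/ml was added for a further 24 hours, and plates were read on a BMG Polarstar at 573-605.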

[7] = tested on: CHOP-sensitive NHL cell line CRL2631; assay: Cell growth assay (resazurin) on CHOP-sensitive CRL2631 NHL cells; format: cell-based, human
[8] = tested on: CHOP-sensitive CRL2631 cells; assay: Prevention of the emergence of CHOP resistance; format: cell-based, human; details: one week CHOP+rifabutin, half (0.5×) and full (1×) doses of CHOP
Experimental: The ability of rifabutin to prevent the emergence of CHOP-resistance was determined by treating CHOP-sensitive CRL2631 cells with either CHOP alone or CHOP+rifabutin for one week. Following treatment, the cells were grown in the absence of CHOP, then their sensitivity to CHOP was assayed by retreatment with CHOP, followed by counting of viable cells. […] A 1×CHOP dose in this experiment corresponds to final concentrations of the following components: 0.83 μM 4-hydroxycyclophosphamide [4HC, a pre-activated form of cyclophosphamide], 0.057 μM doxorubicin, 0.01 μM vincristine, and 0.186 μM prednisone.

[9] = tested on: CRL2631 cells; assay: Collagen invasion 3D assay, CRL2631 cells; format: cell-based, human; details: 10 uM Rifabutin in collagen matrix, 24 hours
Experimental: The effects of rifabutin on cell invasion was assessed in a collagen invasion 3D assay. Increased interest in the use of 3D culture systems has been motivated by accumulating evidence that 3D models better reflect the microenvironment of tumors and metastases and more accurately predict therapeutic response in vivo compared with conventional 2D assays. A collagen invasion 3D assay allows the rapid and quantitative assessment of invasiveness and a means to screen for drugs which alter the invasive phenotype of tumor cells.
The CHOP-resistant G3 cell line is much more invasive in a collage invasion 3D assay than its CHOP-sensitive parent cell line (CRL2631). Collagen matrices (1 mg/ml) were prepared as previously described in Su, S. C., et al., Molecular profile of endothelial invasion of three-dimensional collagen matrices: insights into angiogenic sprout induction in wound healing. Am. J. Physiol. […] Cell invasion density was quantified by counting fixed cultures under transmitted light using an Olympus CK2 inverted microscope equipped with eyepieces displaying a 10×10 ocular grid. For each condition, four random fields were selected and the number of invading cells per high power field (HPF) was counted manually at 10× magnification, corresponding to 1 mm^2 area. […]

## CO[C@H]1/C=C/O[C@@]2(C)Oc3c(C)c(O)c4c(c3C2=O)C2=NC3(CCN(CC(C)C)CC3)NC2=C(NC(=O)/C(C)=C\C=C\[C@H](C)[C@H](O)[C@@H](C)[C@@H](O)[C@@H](C)[C@H](OC(C)=O)[C@@H]1C)C4=O [Rifabutin, rifabutin]
[1]; CHOP with 5 μM rifabutin
  CHOP dose giving significant growth inhibition: 320 ng/mL and 640 ng/mL
[1]; rifabutin alone
  cell viability in the absence of CHOP: no effect on cell viability
[2]
  Magnitude of potentiation in combination with doxorubicin: ++ (potentiation between 2.1 to 5 fold increase)
[3]
  Magnitude of potentiation in combination with doxorubicin: + (potentiation between 1.2 to 2.0 fold increase)
[4]; after 19 days treatment, DOX 3.3 mg/kg i.v. + rifabutin 25 mg/kg oral weekly
  average tumor volume: 348 mm^3
[4]; after 19 days, DOX 3.3 mg/kg i.v. + rifabutin 25 mg/kg oral
  reduction in tumor size versus DOX-only: 40%
[5]; biphasic plasma elimination
  initial half-life: approximately 4 hours
  mean terminal half-life: 45 (±17) hours
[5]; single oral dose of 300 mg
  mean (±SD) peak plasma concentration (Cmax): 375 (±267) ng/mL
[6]; G3, lymphoma B cells
  Magnitude of potentiation in combination with doxorubicin: +++ (potentiation greater than 5 fold increase)
[6]; analog alone, lymphoma cell line G3, read-out: IC50
  IC50: > 64 µM
[6]; with 1 μM doxorubicin, lymphoma cell line G3, read-out: IC50 (μM) with doxorubicin (1 μM)
  IC50: 0.25 µM
[6]; lymphoma cell line G3
  Fold increase in potency over DOX alone: 9.4 fold
[6]; rifabutin alone, G3
  cell growth in the absence of CHOP: did not affect the growth
[7]; CHOP-sensitive cells as printed, FIG. 2B
  sensitivity of cells to CHOP relative to a control drug: enhanced the sensitivity
[7]; low-ROS CRL2631 cells, 10 uM rifabutin
  CHOP sensitivity of low-ROS cell population: sensitized to CHOP
[7]; rifabutin alone, CRL2631
  cell growth in the absence of CHOP: did not affect the growth
[8]
  emergence of CHOP-resistant cells: significantly repress the emergence of CHOP-resistant cells
[9]
  reduction of invasion: Less of this effect
